How the values were obtained:
hERG potassium channel = hERG potassium channel (Homo sapiens (Human), UniProt Q12809); experiment: hERG potassium channel automated patch clamp in CHO-hERG cells
Protocol: CHO-hERG cells (purchased from ATCC) were incubated in a culture flask. When the cell density reached 60˜80%, the culture medium (Glutamax DMEM/F12 medium (Gibco, Shanghai) containing 10% fetal bovine serum) was removed. The cells were washed with 7 mL PBS once, and then digested by adding 3 mL Detachin cell dissociation buffer. After complete digestion, the resultant mixture was neutralized by adding 7 mL culture medium, and centrifuged. The supernatant was removed with a pipette, 5 mL culture medium was added to re-suspend the cells to ensure a cell density of 2˜5×10^6/mL.
Intracellular fluid and extracellular fluid were prepared as described in the following table.
A certain amount of compound was dissolved in […] at the following concentrations, to prepare the stock solution of compound. 2 μL stock solution of compound was added to 998 μL extracellular fluid, and was subjected to 5-fold serial dilution in extracellular fluid containing 0.2% DMSO to get the final concentrates to be tested.
Single cell giga-seal and formation of whole-cell mode were automatically performed by Sophion Qpatch HT fully automated cell patch clamp systems. After obtaining the whole-cell recording mode, the cell was clamped at −80 mV. The cell first underwent pre-voltage of −50 mV for 50 msec, then underwent depolarization stimulation at 20 mV for 5 sec, and then underwent repolarization at −50 mV for 5 sec, and then the voltage return to −80 mv. The cell underwent the stimulation at the voltage every 15 sec, and the data were recorded for 2 min, then extracellular fluid was administered, and then the data were recorded for 2 min. Then, the administration process begun. The concentration of a test compound started from the lowest concentration, each test concentration was administered for 2 min. […] At least three cells were tested for each concentration (n≥3). The experimental data was analyzed by XLFit software.

[1] = tested on: inflammatory abdominal pain caused by acetic acid; experiment: Abdominal inflammatory pain caused by acetic acid; type: in vivo, Kunming mice; conditions: mice, 10 mg/kg i.p. 1 h before acetic acid; indometacin 20 mg/kg (FIG. 4)
Protocol: (§1) In the Experimental example, compounds to be evaluated or compounds to be tested or test compounds used are the Compounds 1-46 prepared in the Examples according to the invention. In the Experimental example, all the agents for injection, including compounds to be evaluated or compounds to be tested or test compounds, and positive control drug, were dissolved in a mixed solvent of PEG400:Tween 80:normal saline (at a volume ratio of 5:5:90), at a concentration of 5 mg/mL.
Typical model for studying inflammation-induced visceral pain medically was used to evaluate the therapeutic effects of compounds on inflammatory visceral pain. The model can represent general visceral pain including, but not only limited to appendicitis, gastritis, pancreatitis, prostatitis, myocarditis, interstitial cystitis, pain caused by hepatic, gall or kidney stone, irritable bowel syndrome, and chronic pelvic pain syndrome.
Experimental Kunming mice (purchased by Xiamen University Laboratory Animal Center from Shanghai SLAC Laboratory Animal Co., Ltd) were in an experimental environment with free access to food and water for 1 week. The mice were fasted for 24 h before administration. The compound to be evaluated (10 mg/kg) was administered to the mice by intraperitoneal injection at 1 h before administration of acetic acid, wherein the positive control drug indometacin was administered at a dose of 20 mg/kg, and the blank control was normal saline. Acetic acid (50 μL, acetic acid dissolved in normal saline, at a concentration of 5%) was administered to the mice by intraperitoneal injection, and the mice were then placed in the observation cage. A video camera was used to record the behavior of the mice in the following 20 min. Pain-related behavior was analyzed statistically based on torsion times of the mice in said period.

[2] = Stability assay in rat plasma; type: in vitro ADME; conditions: 37° C.
Protocol: To each of several tubes sub-packaged with rat plasma, PBS solution was added in a volume equal to a quarter of plasma volume, and the resultant mixture was mixed well. […] At different time points (0, 10, 30, 60, 120, 240, 360, 720, 1440 min), 50 μL plasma sample was taken and added to 150 μL precooled methanol (containing the internal standard compound E8, with a structure of
[drawing 117] and a name of 1-(2-Biphenyl-4-yl)ethyl-carbonyl pyrrolidine, 1 nmol/sample), wherein three parallel samples were prepared for each time point. The samples were then vertically mixed well, and centrifuged at 4° C., 12000 g for 10 min. The supernatant was transferred to a sample vial. LC-MS/MS was used to measure the peak area at different time points, Analyst® version 1.4.1. software was used to analyze chromatographic peak, and the content of the target compound was calculated by virtue of the standard curve.

SNI neuropathic pain = experiment: Neuropathic pain mouse model induced by spared nerve injury (SNI); type: in vivo, C57BL/6 mice; conditions: SNI mice; for effect compared to positive control drug gabapentin: 10 mg/kg i.p. vs gabapentin 100 mg/kg, 1 h after administration
Protocol: as §1
Neuropathic pain mouse model induced by spared nerve injury (SNI) is a common animal model for studying neuropathic pain medically. The invention uses the model to evaluate the therapeutic effects of the compounds on neuropathic pain, wherein the model can represent peripheral neuropathic pain including, but not limited to post-herpetic neuralgia, pain caused by diabetic perineuropathy, neurothlipsis and exudation caused by tumor, lumbar surgery failure syndrome, neuropathic pain caused by lumbar disc protrusion, postpartum neuralgia, trigeminal neuralgia, chemotherapy-induced multiple neuropathic pain, post-radiotherapy plexopathy, and radicular neuralgia.
C57BL/6 mice (purchased from Shanghai SLAC Laboratory Animal Co., Ltd) were anesthetized by intraperitoneal injection with pentobarbital sodium (40 mg/kg), and skin from knee joint to gluteal region was subjected to skin preparation and disinfection. After the mice were fixed, the knee joint part was cut about 1 cm longitudinally with bistoury, and muscle tissues were separated by blunt dissection to expose sciatic nerve. The tibial and common peroneal nerve branches of sciatic nerve stem were cut off carefully, and the cut was then stitched up. The mice was placed in a clean observation cage. In the sham-operation group, only sciatic nerve was exposed without cutting the tibial and common peroneal nerve branches. From the day before the experiment to 24 h after the operation, the plantar edges of the mice were stimulated everyday by […] (Ugo Basile Company (Italy), Product ID: 37450), and data was collected automatically to obtain the threshold value of mice to mechanical stimulation. […] The positive control drug gabapentin was administered at a dose of 100 mg/kg. All the agents to be injected were dissolved in a mixed solvent of PEG400:Tween 80:normal saline (at a volume ratio of 5:5:90), at a concentration of 5 mg/mL. By comparing the threshold values (the acting force of when the mouse retracting the paw) at different administration time in different administration groups, the compound was evaluated for its analgesic effect on neuropathic pain.

[3] = 10 mg/kg i.p. (gabapentin 100 mg/kg), 4 h after administration
[4] = 10 mg/kg intraperitoneal, 1 h and 4 h after administration (FIGS. 1 and 2)

Chain of hERG potassium channel (Q12809 whole entry): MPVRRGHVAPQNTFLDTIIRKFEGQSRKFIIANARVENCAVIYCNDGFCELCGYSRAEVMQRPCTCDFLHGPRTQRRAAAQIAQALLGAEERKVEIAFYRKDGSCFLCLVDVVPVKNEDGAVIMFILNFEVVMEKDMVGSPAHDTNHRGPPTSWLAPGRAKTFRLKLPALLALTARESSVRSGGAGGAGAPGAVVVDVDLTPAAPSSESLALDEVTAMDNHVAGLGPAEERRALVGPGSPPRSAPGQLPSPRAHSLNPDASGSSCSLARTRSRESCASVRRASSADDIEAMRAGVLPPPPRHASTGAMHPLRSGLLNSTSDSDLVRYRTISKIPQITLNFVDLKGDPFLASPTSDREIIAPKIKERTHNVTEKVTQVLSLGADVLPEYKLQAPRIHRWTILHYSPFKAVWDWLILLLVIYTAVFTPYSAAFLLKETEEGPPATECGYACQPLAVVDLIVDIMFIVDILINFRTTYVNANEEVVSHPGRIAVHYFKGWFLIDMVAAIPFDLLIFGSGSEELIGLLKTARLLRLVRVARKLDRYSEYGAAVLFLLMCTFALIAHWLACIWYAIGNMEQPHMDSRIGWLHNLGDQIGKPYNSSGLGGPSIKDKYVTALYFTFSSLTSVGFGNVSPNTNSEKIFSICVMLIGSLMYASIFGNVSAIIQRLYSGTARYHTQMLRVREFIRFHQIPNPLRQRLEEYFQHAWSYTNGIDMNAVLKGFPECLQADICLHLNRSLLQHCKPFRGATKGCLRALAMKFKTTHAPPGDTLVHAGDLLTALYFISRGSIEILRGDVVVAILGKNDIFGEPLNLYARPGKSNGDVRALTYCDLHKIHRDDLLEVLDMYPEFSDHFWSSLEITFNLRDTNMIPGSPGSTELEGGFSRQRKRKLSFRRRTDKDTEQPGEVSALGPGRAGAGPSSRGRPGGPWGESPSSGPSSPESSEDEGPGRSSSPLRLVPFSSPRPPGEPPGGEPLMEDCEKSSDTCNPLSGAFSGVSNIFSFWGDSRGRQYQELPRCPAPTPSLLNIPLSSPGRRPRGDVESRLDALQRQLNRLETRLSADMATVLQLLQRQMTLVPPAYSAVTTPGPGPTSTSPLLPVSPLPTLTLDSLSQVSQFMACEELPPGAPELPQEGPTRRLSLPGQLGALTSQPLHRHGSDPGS

Row | Compound | IC50 (hERG potassium channel) | effect of inhibiting abdominal inflammatory pain [1] | half-life at 2 μM [2] | effect of inhibiting central neuropathic pain (SNI neuropathic pain; [3]) | effect compared to positive control drug gabapentin (SNI neuropathic pain) | effect of inhibiting central neuropathic pain (SNI neuropathic pain; [4]) | analgesic effect (SNI neuropathic pain; 10 mg/kg i.p., 10 h after administration (FIG. 3))
1 | O=C(CCCCCc1cccc(Cl)c1)N1CCOC1=O [Compound 9, 3-Chlorophenylhexanoyl Oxazolidinone] | > 40 µM | significant effects of inhibiting abdominal inflammatory pain | 163 min | retained a relatively strong effect of inhibiting central neuropathic pain | not as effective as the control drug | significant effects of inhibiting central neuropathic pain | 
2 | O=C(CCCCCc1ccccc1)N1CCOC1=O [Compound 2, Phenylhexanoyl Oxazolidinone] | > 40 µM | significant effects of inhibiting abdominal inflammatory pain | 188 min | retained a relatively strong effect of inhibiting central neuropathic pain | not as effective as the control drug | significant effects of inhibiting central neuropathic pain | still had a sustained analgesic effect

From patent publication US10174015B2, “Substituted heterocyclic derivative, preparation method and use thereof” (Xiamen University, priority 2014, dated 2019)
